The values below come from patent US8648092B2, “Imidazo[1,2-a]pyridine derivatives: preparation and pharmaceutical applications” (MEI Pharma, priority 2005, dated 2014).

For assay [1], the target named is HDAC1 enzyme (recombinant GST-HDAC1) (Homo sapiens (Human), UniProt Q13547). The assay can be described thus: In vitro HDAC assay for determination of IC50 values (BIOMOL fluorescent-based HDAC activity assay). In kind it is biochemical. The note with it: Flur de lys substrate, 2 h room temperature, read-out: IC50 (HDAC 1). Summed up:
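Recombinant human GST-HDAC1, baculovirus-expressed in SF9 cells and glutathione-purified, tested with a fluorogenic deacetylase substrate; Fluor de Lys developer added for 10 min. Fluorescence at 360 nm excitation/460 nm emission; IC50 fitted from a concentration series.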

Another assay has as its system Colo205 cells. The assay is described as follows: Cell-based proliferation assay for determination of GI50 values (CyQUANT). Also noted: species or system human. Summed up: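 Colo205 cells in RPMI 1640 with 5% FBS, seeded 5000/well and grown 24 h at 37 °C. Exposure to compound lasted 96 h, with growth read by CyQUANT. GI50 = concentration giving 50% growth inhibition, from dose-response curves.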

The mark [2] stands for this setting: Homo sapiens, COLO 205, 96 h treatment.

Chain of HDAC1 enzyme (recombinant GST-HDAC1) (Q13547 whole entry): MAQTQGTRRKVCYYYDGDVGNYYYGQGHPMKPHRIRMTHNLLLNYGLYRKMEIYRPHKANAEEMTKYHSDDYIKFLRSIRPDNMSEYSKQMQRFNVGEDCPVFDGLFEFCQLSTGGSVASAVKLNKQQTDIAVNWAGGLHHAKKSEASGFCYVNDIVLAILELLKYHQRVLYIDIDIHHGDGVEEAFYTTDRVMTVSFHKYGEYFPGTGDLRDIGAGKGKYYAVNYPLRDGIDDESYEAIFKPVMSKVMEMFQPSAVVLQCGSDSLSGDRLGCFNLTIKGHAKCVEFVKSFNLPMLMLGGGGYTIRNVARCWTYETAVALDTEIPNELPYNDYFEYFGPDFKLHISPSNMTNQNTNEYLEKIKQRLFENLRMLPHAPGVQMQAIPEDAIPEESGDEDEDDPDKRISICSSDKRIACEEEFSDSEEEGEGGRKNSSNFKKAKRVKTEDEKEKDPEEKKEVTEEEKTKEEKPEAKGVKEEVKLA

`CCN(Cc1c(C)nc2cc(C=CC(=O)NO)ccn12)CC(C)(C)C` [Compound 111, 3-(3-{[(2,2-Dimethyl-propyl)-ethyl-amino]-methyl}-2-methyl-imidazo[1,2a]pyridin-7-yl)-N-hydroxy-acrylamide]: in assay [1], the concentration for half-maximal inhibition (IC50) (in general, the concentration needed to halve the response being measured) is 50 nM. Besides, the GI50 (commonly the concentration giving 50% growth inhibition) in the assay with Colo205 cells (96 h treatment) is 600 nM.

As for `CCCCc1nc2cc(/C=C/C(=O)NO)ccn2c1CN(CC)CC(C)C` [Compound 112, 3-{2-Butyl-3-[(ethyl-isobutyl-amino)-methyl]-imidazo[1,2-a]pyridin-7-yl}-N-hydroxy-acrylamide], in assay [1], the IC50 turned out to be 90 nM. Besides, the GI50 in the assay on Colo205 cells (setting [2]) was determined as 570 nM.

For the compound `CCCCc1nc2cc(/C=C/C(=O)NO)ccn2c1CN(CC)CCC(C)C` [Compound 114, 3-(2-Butyl-3-{[ethyl-(3-methyl-butyl)-amino]-methyl}-imidazo[1,2-a]pyridin-7-yl)-N-hydroxy-acrylamide], the 50% inhibitory concentration (IC50) in assay [1] worked out at 20 nM. Further, growth in the assay on Colo205 cells (setting [2]) was halved (GI50) at 90 nM.

Take `CCCCc1nc2cc(/C=C/C(=O)NO)ccn2c1CN(CC)CC(C)(C)C` [Compound 115, 3-(2-Butyl-3-{[(2,2-dimethyl-propyl)-ethyl-amino]-methyl}-imidazo[1,2-a]pyridin-7-yl)-N-hydroxy-acrylamide]: in assay [1], the IC50 is 160 nM. The compound further came in with a GI50 in the assay on Colo205 cells (setting [2]) of 950 nM.

Take `CCCCc1nc2cc(/C=C/C(=O)NO)ccn2c1CN(CC)CC(C)CCC` (stereo not drawn) [Compound 116, 3-(2-Butyl-3-{[ethyl-(2-methyl-pentyl)-amino]-methyl}-imidazo[1,2-a]pyridin-7-yl)-N-hydroxy-acrylamide]: the IC50 in assay [1] is 80 nM. Further, in the assay on Colo205 cells (96 h treatment), the GI50 stood at 490 nM.

For `CCCCc1nc2cc(/C=C/C(=O)NO)ccn2c1CN(CC)CCC(C)(C)C` [Compound 117, 3-(2-Butyl-3-{[(3,3-dimethyl-butyl)-ethyl-amino]-methyl}-imidazo[1,2-a]pyridin-7-yl)-N-hydroxy-acrylamide], the IC50 in assay [1] was found to be 30 nM. This compound also had a concentration for 50% growth inhibition (GI50) with Colo205 cells (setting [2]) of 140 nM.

With `CCCCc1nc2cc(/C=C/C(=O)NO)ccn2c1CN(CC)CC(CC)CC` [Compound 118, 3-(2-Butyl-3-{[ethyl-(2-ethyl-butyl)-amino]-methyl}-imidazo[1,2-a]pyridin-7-yl)-N-hydroxy-acrylamide], the concentration for half-maximal inhibition (IC50) in assay [1] is 150 nM. The compound further had a 50% growth inhibitory concentration (GI50) in the assay with Colo205 cells (setting [2]) of 390 nM.

`CCCCc1nc2cc(/C=C/C(=O)NO)ccn2c1CN(CC)CCC(C)CC(C)(C)C` (stereo not drawn) [Compound 119, 3-(2-Butyl-3-{[ethyl-(3,55-trimethyl-hexyl)-amino]-methyl}-imidazo[1,2-a]pyridin-7-yl)-N-hydroxy-acrylamide]: the concentration for half-maximal inhibition (IC50) in assay [1] amounted to 200 nM. This compound also gave a concentration for 50% growth inhibition (GI50) in the assay with Colo205 cells (setting [2]) of 530 nM.

As for `CCCCN(CC)Cc1c(-c2ccccc2)nc2cc(/C=C/C(=O)NO)ccn12` [Compound 120, 3-{3-[(Butyl-ethylamino)-methyl]-2-phenyl-imidazo[1,2-a]pyridin-7-yl}-N-hydroxy-acrylamide], the concentration for half-maximal inhibition (IC50) in assay [1] was found to be 40 nM. Besides, the 50% growth inhibitory concentration (GI50) in the assay with Colo205 cells (setting [2]) is 680 nM.

Take `CCN(CCC(C)C)Cc1c(-c2ccccc2)nc2cc(/C=C/C(=O)NO)ccn12` [Compound 121, 3-(3-{[Ethyl-(3-methyl-butyl)-amino]-methyl}-2-phenyl-imidazo[1,2-a]pyridin-7-yl)-N-hydroxy-acrylamide]: the IC50 in assay [1] is 30 nM. In addition, growth with Colo205 cells (setting [2]) was halved (GI50) at 490 nM.

`CCN(CCC(C)(C)C)Cc1c(-c2ccccc2)nc2cc(/C=C/C(=O)NO)ccn12` [Compound 122, 3-(3-{[(3,3-Dimethyl-butyl)-ethyl-amino]-methyl}-2-phenyl-imidazo[1,2-a]pyridin-7-yl)-N-hydroxy-acrylamide]: the IC50 in assay [1] worked out at 50 nM. It took 520 nM to inhibit growth in the assay on Colo205 cells (setting [2]) by half (GI50).

For the compound `CCCc1nc2cc(/C=C/C(=O)NO)ccn2c1CNC(C)(C)C` [Compound 123, 3-[3-(tert-Butylamino-methyl)-2-propyl-imidazo[1,2-a]pyridin-7-yl]-N-hydroxy-acrylamide], the IC50 in assay [1] is 40 nM. For the same compound, in the assay with Colo205 cells (Homo sapiens, COLO 205, 96 h, 96 h treatment), the concentration for 50% growth inhibition (GI50) was 180 nM.
